The values below are quoted from earlier work in US5648564A, “Process for the formation, isolation and purification of comestible xanthophyll crystals from plants” (Kemin Industries, Inc., priority 1995, dated 1997).

Each structure is given as a SMILES string.

Tested on in the first series: not given
Conditions: consumption of lutein and zeaxanthin (reported jointly).
On to `CC1=C[C@H](O)CC(C)(C)[C@H]1/C=C/C(C)=C/C=C/C(C)=C/C=C/C=C(C)/C=C/C=C(C)/C=C/C1=C(C)C[C@@H](O)CC1(C)C` [lutein], for which the “reduction in age-related macular degeneration” value is on record as 40%.

For the molecule `CC1=C(/C=C/C(C)=C/C=C/C(C)=C/C=C/C=C(C)/C=C/C=C(C)/C=C/C2=C(C)C[C@@H](O)CC2(C)C)C(C)(C)C[C@H](O)C1` [zeaxanthin], the “reduction in age-related macular degeneration” value was 40%.

Another series deals with rat. Conditions: oral.
For the molecule `ClC(Cl)Cl` [Chloroform], the LD50 was 2.18 mL/kg. For `CCOC(C)=O` [Ethyl Acetate], the LD50 was 11.3 mL/kg. With `CC(O)CO` (stereo not drawn) [Propylene Glycol, 1,2-propanediol], the LD50 was 25 mL/kg.

In the case of `c1ccncc1` [Pyridine], the LD50 was 1.58 mL/kg.
